Biological target: Btk (Homo sapiens (Human), UniProt Q06187)
Test: Btk kinase assay (ADP-Glo)
Assay type: biochemical
Conditions: ATP 1.2 μM, 60 minutes, room temperature; read-out: BTK enzyme IC50
Protocol: The Btk kinase assay was performed using a ADP-Glo Btk kinase assay kit purchased from Promega (Madison, Wis.). The assay was conducted according to the protocols provided in the assay kit. In brief, the enzyme reaction was carried out in the kinase reaction buffer containing Btk (2 ng/μl), ATP (1.2 μM), poly GT peptide (0.3 μM), DTT (40 nM), MnCl2 (1.4 mM), and 1×kinase buffer (included in the kit) in the presence or absence of the tested articles at various concentrations in 384-well plate at room temperature (22±1° C.) for 60 minutes. The final reaction volume for each reaction was 10 μl. Then, 4 μl of ADP-Glo reagent (included in the kit) was added into the reaction and the plate was further incubated for another 40 minutes to terminate the reaction and deplete the remaining ATP. Finally, 10 μl of the kinase detection reagent was added into each reaction to simultaneously convert ADP to ATP and allow the newly synthesized ATP to be measured by a plate-reading luminometer (Victor X5 2030 multilabel reader, PerkinElmer). IC50 value was calculated using appropriate programs in GraphPad Prism by plotting the logarithm of the concentration versus percent inhibition as compared with a vehicle (DMSO) control.

Btk, sequence (Q06187 whole entry): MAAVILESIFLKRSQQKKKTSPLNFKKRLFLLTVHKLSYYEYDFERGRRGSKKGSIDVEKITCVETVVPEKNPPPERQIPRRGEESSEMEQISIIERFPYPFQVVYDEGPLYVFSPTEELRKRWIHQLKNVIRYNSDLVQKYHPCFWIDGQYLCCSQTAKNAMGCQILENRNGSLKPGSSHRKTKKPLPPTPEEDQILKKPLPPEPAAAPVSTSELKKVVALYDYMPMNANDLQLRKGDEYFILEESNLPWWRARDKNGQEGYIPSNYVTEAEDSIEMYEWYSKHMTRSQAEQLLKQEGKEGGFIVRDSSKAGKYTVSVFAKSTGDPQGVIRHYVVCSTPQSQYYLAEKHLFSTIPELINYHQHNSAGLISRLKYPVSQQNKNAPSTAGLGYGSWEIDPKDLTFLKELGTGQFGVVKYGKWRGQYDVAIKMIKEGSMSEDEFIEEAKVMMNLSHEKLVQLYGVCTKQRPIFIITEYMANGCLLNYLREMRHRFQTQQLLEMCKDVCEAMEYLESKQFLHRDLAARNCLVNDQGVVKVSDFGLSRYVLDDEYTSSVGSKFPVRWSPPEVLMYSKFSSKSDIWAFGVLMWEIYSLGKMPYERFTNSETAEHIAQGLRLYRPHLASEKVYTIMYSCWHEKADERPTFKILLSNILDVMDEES

| Compound | IC50 [nM] |
| --- | --- |
| N#C/C(=C\C1CC1)C(=O)N1CCC[C@@H](n2cc(-c3ccc(Oc4ccccc4)cc3)c3c(N)n[nH]c(=O)c32)C1 [Example 50, (E)-2-[(3R)-3-[4-amino-7-oxo-3-(4-phenoxyphenyl)-6H-pyrrolo[2,3-d]pyridazin-1-yl]piperidine-1-carbonyl]-3-cyclopropyl-prop-2-enenitrile] | 10 to 1000 |
| C=CC(=O)Nc1cccc(-n2cc(-c3ccc(Oc4ccccc4F)cc3)c3c(N)n[nH]c(=O)c32)c1 [Example 91, N-(3-(4-amino-3-(4-(2-fluorophenoxy)phenyl)-7-oxo-6,7-dihydro-1H-pyrrolo[2,3-d]pyridazin-1-yl)phenyl)acrylamide] | 10 to 1000 |
| N#CCC(=O)N1CCC[C@@H](n2cc(-c3ccc(Oc4ccccc4)cc3)c3c(N)n[nH]c(=O)c32)C1 [Example 24, 3-[(3R)-3-[4-amino-7-oxo-3-(4-phenoxyphenyl)-6H-pyrrolo[2,3-d]pyridazin-1-yl]-1-piperidyl]-3-oxo-propanenitrile] | 10 to 1000 |
| C=CC(=O)N1CCCC(n2cc(-c3ccc(OC)c(Cl)c3)c3c(N)n[nH]c(=O)c32)C1 (stereo not shown) [Example 53, 1-(1-acryloylpiperidin-3-yl)-4-amino-3-(3-chloro-4-methoxyphenyl)-1H-pyrrolo[2,3-d]pyridazin-7(6H)-one] | ≤ 10 |
| CC#CC(=O)N1CC[C@@H](n2cc(-c3ccc(Oc4ccccc4Cl)cc3)c3c(N)n[nH]c(=O)c32)C1 [Example 96, (R)-4-amino-1-(1-(but-2-ynoyl)pyrrolidin-3-yl)-3-(4-(2-chlorophenoxy)phenyl)-1H-pyrrolo[2,3-d]pyridazin-7(6H)-one] | 10 to 1000 |
| CN(C)C/C=C/C(=O)N1CCC[C@H]1Cn1cc(-c2ccc(Oc3ccccc3)cc2)c2c(N)n[nH]c(=O)c21 [Example 41, 4-amino-1-[[(2S)-1-[(E)-4-(dimethylamino)but-2-enoyl]pyrrolidin-2-yl]methyl]-3-(4-phenoxyphenyl)-6H-pyrrolo[2,3-d]pyridazin-7-one] | 10 to 1000 |
| C=CC(=O)NC1C2CCC1CC(n1cc(-c3ccc(Oc4ccccc4)cc3)c3c(N)n[nH]c(=O)c31)C2 (stereo not shown) [Example 15, N-(3-(4-amino-7-oxo-3-(4-phenoxyphenyl)-6,7-dihydro-1H-pyrrolo[2,3-d]pyridazin-1-yl)bicyclo[3.2.1]octan-8-yl)acrylamide] | 10 to 1000 |
| N#CN1CCCC(n2cc(-c3ccc(Oc4ccccc4F)cc3)c3c(N)n[nH]c(=O)c32)C1 (stereo not shown) [Example 108, 3-(4-amino-3-(4-(2-fluorophenoxy)phenyl)-7-oxo-6,7-dihydro-1H-pyrrolo[2,3-d]pyridazin-1-yl)piperidine-1-carbonitrile] | ≤ 10 |
| N#CN1CCC[C@@H](n2cc(-c3ccc(Oc4ccccc4)c(F)c3)c3c(N)n[nH]c(=O)c32)C1 [Example 85, (R)-3-(4-amino-3-(3-fluoro-4-phenoxyphenyl)-7-oxo-6,7-dihydro-1H-pyrrolo[2,3-d]pyridazin-1-yl)piperidine-1-carbonitrile] | 10 to 1000 |
| CCC(=O)N1CCCC(n2cc(-c3ccc(Oc4ccccc4)cc3)c3c(N)n[nH]c(=O)c32)C1 (stereo not shown) [Example 19, 4-amino-3-(4-phenoxyphenyl)-1-(1-propionylpiperidin-3-yl)-1H-pyrrolo[2,3-d]pyridazin-7(6H)-one] | 10 to 1000 |
| C=CC(=O)N1CCC[C@@H](n2nc(-c3ccc(Oc4ccccc4)cc3)c3c(N)n[nH]c(=O)c32)C1 [Example 110, (R)-1-(1-acryloylpiperidin-3-yl)-4-amino-3-(4-phenoxyphenyl)-1H-pyrazolo[3,4-d]pyridazin-7(6H)-one] | 10 to 1000 |
| C=CC(=O)N1CC[C@@H](n2cc(-c3ccc(Oc4ccccc4)cc3)c3c(N)n[nH]c(=O)c32)C1 [Example 4, 4-amino-3-(4-phenoxyphenyl)-1-[(3R)-1-prop-2-enoylpyrrolidin-3-yl]-6H-pyrrolo[2,3-d]pyridazin-7-one] | 10 to 1000 |
| CC#CC(=O)N[C@H]1CC[C@@H](n2cc(-c3ccc(Oc4ccccc4F)cc3)c3c(N)n[nH]c(=O)c32)CC1 [Example 102, N-((1s,4s)-4-(4-amino-3-(4-(2-fluorophenoxy)phenyl)-7-oxo-6,7-dihydro-1H-pyrrolo[2,3-d]pyridazin-1-yl)cyclohexyl)but-2-ynamide] | 10 to 1000 |
| C=CC(=O)Nc1ccc(-n2cc(-c3ccc(Oc4ccccc4)cc3)c3c(N)n[nH]c(=O)c32)cc1 [Example 90, N-(4-(4-amino-7-oxo-3-(4-phenoxyphenyl)-6,7-dihydro-1H-pyrrolo[2,3-d]pyridazin-1-yl)phenyl)acrylamide] | 10 to 1000 |
| N#CN1CCC[C@@H](n2cc(-c3ccc(Oc4ccccc4F)cc3)c3c(N)n[nH]c(=O)c32)C1 [Example 87, (R)-3-(4-amino-3-(4-(2-fluorophenoxy)phenyl)-7-oxo-6,7-dihydro-1H-pyrrolo[2,3-d]pyridazin-1-yl)piperidine-1-carbonitrile] | ≤ 10 |

Results, then the compound that gave them:

| IC50 [nM] | Compound |
| --- | --- |
| 10 to 1000 | N#CN1CCC[C@@H](n2cc(-c3ccc(Oc4c(F)cccc4F)cc3)c3c(N)n[nH]c(=O)c32)C1 [Example 84, (R)-3-(4-amino-3-(4-(2,6-difluorophenoxy)phenyl)-7-oxo-6,7-dihydro-1H-pyrrolo[2,3-d]pyridazin-1-yl)piperidine-1-carbonitrile] |
| ≤ 10 | CN(C)C/C=C/C(=O)N1CCC[C@@H](n2cc(-c3ccc(Oc4c(F)cccc4Cl)cc3)c3c(N)n[nH]c(=O)c32)C1 [Example 79, 4-amino-3-[4-(2-chloro-6-fluoro-phenoxy)phenyl]-1-[(3R)-1-[(E)-4-(dimethylamino)but-2-enoyl]-3-piperidyl]-6H-pyrrolo[2,3-d]pyridazin-7-one] |
| ≤ 10 | CN(C)C/C=C/C(=O)N1CCCC(n2cc(-c3ccc(Oc4cccc(F)c4)cc3)c3c(N)n[nH]c(=O)c32)C1 (stereo not shown) [Example 63, 4-amino-1-[1-[(E)-4-(dimethylamino)but-2-enoyl]-3-piperidyl]-3-[4-(3-fluorophenoxy)phenyl]-6H-pyrrolo[2,3-d]pyridazin-7-one] |
| ≤ 10 | Nc1n[nH]c(=O)c2c1c(-c1ccc(Oc3ccccc3)cc1)cn2[C@@H]1CCCN(C(=O)/C=C/CN2CCC2)C1 [Example 33, 4-amino-1-[(3R)-1-[(E)-4-(azetidin-1-yl)but-2-enoyl]-3-piperidyl]-3-(4-phenoxyphenyl)-6H-pyrrolo[2,3-d]pyridazin-7-one] |
| ≤ 10 | C=CC(=O)N1CCC[C@@H](n2cc(-c3ccc(Oc4c(F)cccc4Cl)cc3)c3c(N)n[nH]c(=O)c32)C1 [Example 78, (R)-1-(1-acryloylpiperidin-3-yl)-4-amino-3-(4-(2-chloro-6-fluorophenoxy)phenyl)-1H-pyrrolo[2,3-d]pyridazin-7(6H)-one] |
| 1000 to 100000 | CCCC(=O)N1CC[C@@H](n2cc(-c3ccc(Oc4c(F)cccc4F)cc3)c3c(N)n[nH]c(=O)c32)C1 [Example 118, (R)-4-amino-1-(1-butyrylpyrrolidin-3-yl)-3-(4-(2,6-difluorophenoxy)phenyl)-1H-pyrrolo[2,3-d]pyridazin-7(6H)-one] |
| ≤ 10 | CNC/C=C/C(=O)N1CCC[C@@H](n2cc(-c3ccc(Oc4ccccc4)cc3)c3c(N)n[nH]c(=O)c32)C1 [Example 18, 4-amino-1-[(3R)-1-[(E)-4-(methylamino)but-2-enoyl]-3-piperidyl]-3-(4-phenoxyphenyl)-6H-pyrrolo[2,3-d]pyridazin-7-one] |
| 1000 to 100000 | COC/C=C/C(=O)N1CCC[C@@H](n2cc(-c3ccc(Oc4ccccc4)cc3)c3c(N)n[nH]c(=O)c32)C1 [Example 37, 4-amino-1-[(3R)-1-[(E)-4-methoxybut-2-enoyl]-3-piperidyl]-3-(4-phenoxyphenyl)-6H-pyrrolo[2,3-d]pyridazin-7-one] |
| 10 to 1000 | CN(C)C/C=C/C(=O)N1CCCC(n2cc(-c3ccc(Oc4ccc(Cl)cc4)cc3)c3c(N)n[nH]c(=O)c32)C1 (stereo not shown) [Example 65, 4-amino-3-[4-(4-chlorophenoxy)phenyl]-1-[1-[(E)-4-(dimethylamino)but-2-enoyl]-3-piperidyl]-6H-pyrrolo[2,3-d]pyridazin-7-one] |
| ≤ 10 | CN(C)C/C=C/C(=O)N1CCC[C@@H](n2c(F)c(-c3ccc(Oc4ccccc4)cc3)c3c(N)n[nH]c(=O)c32)C1 [Example 82, 4-amino-1-[(3R)-1-[(E)-4-(dimethylamino)but-2-enoyl]-3-piperidyl]-2-fluoro-3-(4-phenoxyphenyl)-6H-pyrrolo[2,3-d]pyridazin-7-one] |
| ≤ 10 | CN(C)C/C=C/C(=O)N1CCC[C@@H](n2cc(-c3ccc(Oc4ccccc4Cl)cc3)c3c(N)n[nH]c(=O)c32)C1 [Example 71, 4-amino-3-[4-(2-chlorophenoxy)phenyl]-1-[(3R)-1-[(E)-4-(dimethylamino)but-2-enoyl]-3-piperidyl]-6H-pyrrolo[2,3-d]pyridazin-7-one] |
| ≤ 10 | CN(C/C=C/C(=O)N1CCC[C@@H](n2cc(-c3ccc(Oc4ccccc4)cc3)c3c(N)n[nH]c(=O)c32)C1)C1CCC1 [Example 31, 4-amino-1-[(3R)-1-[(E)-4-[cyclobutyl(methyl)amino]but-2-enoyl]-3-piperidyl]-3-(4-phenoxyphenyl)-6H-pyrrolo[2,3-d]pyridazin-7-one] |
| ≤ 10 | Nc1n[nH]c(=O)c2c1c(-c1ccc(Oc3ccccc3)cc1)cn2[C@@H]1CCCN(C(=O)/C=C/CN2CCCC2)C1 [Example 34, 4-amino-3-(4-phenoxyphenyl)-1-[(3R)-1-[(E)-4-pyrrolidin-1-ylbut-2-enoyl]-3-piperidyl]-6H-pyrrolo[2,3-d]pyridazin-7-one] |
